{"source": "patent US20200077655A1", "about": "“Use of an Acyclic Picolinamide Compound as a Fungicide for Control of Phytopathogenic Fungi in Orchard, Vineyard and Plantation Crops” (Dow AgroSciences LLC, priority 2017, published 2020)", "format_in_all_cases": "in vivo", "key": {"Monilinia laxa (MONILA)": {"system": "Monilinia laxa (MONILA)", "test": "Field assessment on brown rot of flowers in stone fruits (apricots)", "conditions": "5% EC + Trycol, field grown apricots, protectant", "excerpt": "A fungicidal treatment containing Compound I, applied in a 5% EC formulation and tank mixed with an adjuvant (Trycol, 50% w/w at 0.2% v/v), was sprayed twice during the flowering period on the plant canopy of apricots (PRNAR, Protici variety) at rates of 50, 100, and 150 grams of active ingredient per hectare (g ai/ha). The applications were done at 7 day intervals with disease inoculation at the last application (protectant). The treatment was part of an experimental trial designed as a randomized complete block with four replications and a plot of approximately 4.7×3.1 m, with compound I being applied using a MISTBLOW, Solo backpack applicator at a water volume of 500 L/ha. MONILA disease was evaluated on flowers on a sample of 10 pre-marked branches per tree. The number of infected flowers was counted and consequently the percent incidence was calculated. Visual infection was assessed three times during the trial at 10, 14 and 20 days after the second application. Area under the disease progress curve (AUDPC) was calculated for each plot using the sets of recorded severity data. Relative AUDPC (% control based on AUDPC) was calculated as percent of the nontreated control."}, "Venturia pyrina (VENTPI)": {"system": "Venturia pyrina (VENTPI)", "test": "Field assessment of pear scab", "conditions": "pears, 15 days after final application", "excerpt": "A 10% SC formulation of Compound I was tank mixed with three different adjuvants: Agnique BP420 (50% w/w at 0.3% v/v), Ethomeen T18H (50% w/w at 0.15% v/v) and Trycol (50% w/w at 0.3% v/v). Formulations of compound I were sprayed on the plant canopy of pear trees (Highland variety) of approximately 2.5 m in height at rates of 100, 150 and 200 grams of active ingredient per hectare (g ai/ha). The trial was based on six foliar applications during the growing season at approximately 12 day intervals with natural pear scab and sooty mold infections in open field conditions. The treatment was part of an experimental trial designed as a randomized complete block with four replications and a plot of approximately 3×5 m. Formulations of compound I were applied with a SOLO mistblower sprayer at a water volume of 1500 L/ha.\nFor VENTPI evaluation, percent control was calculated based on incidence and severity in fruit assessment vs the nontreated control on a random selection of 50 fruits per plot. For CAPDSP assessment, percent control was calculated from percent leaf severity using Abbotts and the nontreated control. Percent control for both diseases was calculated at 11DAAE, 7DAAF and 15DAAF."}, "[1]": {"system": "Cladosporium caryigenum (CLADCA)", "test": "Field assessment of two trials for pecan nut scab", "excerpt": "A fungicidal treatment containing Compound I, applied in an SC formulation (MSO built-in) and tank mixed with an adjuvant (Agnique BP-420, 50% w/w at 0.2% v/v or Adsee C80W 80%), was sprayed on pecan trees (CYAIL, Desirable variety) from pre-flowering up to nut hardening at rates of 60, 120, 150, and 180 g ai/ha. The experimental plots were run with natural infestation. The treatment was part of an experimental trial designed as a randomized complete block (RCB) with four replications and a plot of approximately 40×40 ft, respectively. In one test, compound I was applied in 9 applications at water volume of 94-115 gallons per acre (gal/acre), using an Airblast sprayer (Hollowcone solid disc D10/45 nozzles) and pressurized at 46-54 psi. In the second test, compound I was applied in 8 applications at water volume of […] sprayer (solid stream nozzle) and pressurized at 300 psi. Both trials targeted 14 day intervals for applications.\nDisease evaluations were made as % incidence and % severity nuts in one test, 3 evaluations each, 9 applications, and as % incidence nuts and % severity leaves in the second test, 2 and 3 evaluations, respectively, 8 applications. Area under the disease progress curve (AUDPC) was calculated for each plot using the sets of recorded severity and incidence data. Relative AUDPC (% control based on AUDPC) was calculated as percent of the untreated control."}, "[2]": {"system": "Cladosporium carpopilum (CLADSP)", "test": "Field assessment of almond scab", "conditions": "almond nut incidence, 121 DAAA", "excerpt": "A fungicidal treatment containing Compound I, applied in an SC formulation (MSO built-in) and tank mixed with an adjuvant (Agnique BP-420, 50% w/w at 0.2% v/v or Adsee C80W 80%), was sprayed as a single application on almond trees (PRNDU, Winter variety) at rates of 60, 120, 150, and 180 g ai/ha. The experimental plots were run with natural infestation. The treatment was part of an experimental trial designed as a randomized complete block (RCB) with three replications and a plot of approximately 16×22 ft. Compound I was applied at water volume of 100 gal/acre, using a Mistblower sprayer (Orifice nozzle 2.3 setting).\nNut incidence (number of visual diseased nuts per 10 nuts per tree on whole plot) was assessed 121 days after application A (121 DAAA). Using Abbotts, % nut incidence of the treatments was used vs the nontreated to calculate % control."}, "[3]": {"conditions": "100 g ai/ha, adjuvant Agnique BP420 (first such line, r11)"}, "[4]": {"conditions": "100 g ai/ha, adjuvant Agnique BP420 (second such line, r13)"}, "[5]": {"conditions": "200 g ai/ha, adjuvant Agnique BP420"}, "[6]": {"conditions": "60 g ai/ha, Agnique BP420, 240 mL/ha"}, "[7]": {"conditions": "120 g ai/ha, Agnique BP420, 480 mL/ha"}, "[8]": {"conditions": "150 g ai/ha, Agnique BP420, 600 mL/ha"}, "[9]": {"conditions": "180 g ai/ha, Agnique BP420, 720 mL/ha"}}, "data": [{"smiles": "COc1ccnc(C(=O)N[C@@H](C)C(=O)O[C@@H](C)C(c2ccc(F)cc2)c2ccc(F)cc2)c1OC(C)=O", "note": "[Compound I, (S)-1,1-bis(4-fluorophenyl)propan-2-yl (3-acetoxy-4-methoxypicolinoyl)-L-alaninate]", "values": [{"measurement": "% Control (AUDPC) from flower incidence assessments", "setting": "Monilinia laxa (MONILA); 50 g ai/ha", "value": "B (51-75)"}, {"measurement": "% Control (AUDPC) from flower incidence assessments", "setting": "Monilinia laxa (MONILA); 100 g ai/ha", "value": "A (76-100)"}, {"measurement": "% Control (AUDPC) from flower incidence assessments", "setting": "Monilinia laxa (MONILA); 150 g ai/ha", "value": "A (76-100)"}, {"measurement": "Percent control VENTPI, incidence in fruit assessment", "setting": "Venturia pyrina (VENTPI); [3]", "value": "B (51-75)"}, {"measurement": "Percent control VENTPI, severity in fruit assessment", "setting": "Venturia pyrina (VENTPI); [3]", "value": "B (51-75)"}, {"measurement": "Percent control VENTPI, incidence in fruit assessment", "setting": "Venturia pyrina (VENTPI); [4]", "value": "B (51-75)"}, {"measurement": "Percent control VENTPI, severity in fruit assessment", "setting": "Venturia pyrina (VENTPI); [4]", "value": "A (76-100)"}, {"measurement": "Percent control VENTPI, incidence in fruit assessment", "setting": "Venturia pyrina (VENTPI); 100 g ai/ha, adjuvant ETHOMEEN", "value": "C (26-50)"}, {"measurement": "Percent control VENTPI, severity in fruit assessment", "setting": "Venturia pyrina (VENTPI); 100 g ai/ha, adjuvant ETHOMEEN", "value": "B (51-75)"}, {"measurement": "Percent control VENTPI, incidence in fruit assessment", "setting": "Venturia pyrina (VENTPI); 100 g ai/ha, adjuvant None", "value": "C (26-50)"}, {"measurement": "Percent control VENTPI, severity in fruit assessment", "setting": "Venturia pyrina (VENTPI); 100 g ai/ha, adjuvant None", "value": "B (51-75)"}, {"measurement": "Percent control VENTPI, incidence in fruit assessment", "setting": "Venturia pyrina (VENTPI); 100 g ai/ha, adjuvant Trycol", "value": "B (51-75)"}, {"measurement": "Percent control VENTPI, severity in fruit assessment", "setting": "Venturia pyrina (VENTPI); 100 g ai/ha, adjuvant Trycol", "value": "B (51-75)"}, {"measurement": "Percent control VENTPI, incidence in fruit assessment", "setting": "Venturia pyrina (VENTPI); [5]", "value": "B (51-75)"}, {"measurement": "Percent control VENTPI, severity in fruit assessment", "setting": "Venturia pyrina (VENTPI); [5]", "value": "B (51-75)"}, {"measurement": "Calc Percent Control of CLADCA (AUDPC)", "setting": "[1]; [6]", "value": 25.1, "unit": "%"}, {"measurement": "Calc Percent Control of CLADCA (AUDPC)", "setting": "[1]; 60 g ai/ha, MSO, 120 g ai/ha", "value": 29.8, "unit": "%"}, {"measurement": "Calc Percent Control of CLADCA (AUDPC)", "setting": "[1]; 120 g ai/ha, Adsee C80W 80%, 300 g ai/ha", "value": 21.9, "unit": "%"}, {"measurement": "Calc Percent Control of CLADCA (AUDPC)", "setting": "[1]; [7]", "value": 28.8, "unit": "%"}, {"measurement": "Calc Percent Control of CLADCA (AUDPC)", "setting": "[1]; 120 g ai/ha, MSO, 240 g ai/ha", "value": 30.1, "unit": "%"}, {"measurement": "Calc Percent Control of CLADCA (AUDPC)", "setting": "[1]; [8]", "value": 35.0, "unit": "%"}, {"measurement": "Calc Percent Control of CLADCA (AUDPC)", "setting": "[1]; 150 g ai/ha, MSO, 300 g ai/ha", "value": 29.8, "unit": "%"}, {"measurement": "Calc Percent Control of CLADCA (AUDPC)", "setting": "[1]; [9]", "value": 32.5, "unit": "%"}, {"measurement": "Calc Percent Control of CLADCA (AUDPC)", "setting": "[1]; 180 g ai/ha, MSO, 360 g ai/ha", "value": 53.0, "unit": "%"}, {"measurement": "Calc Percent Control of CLADSP", "setting": "[2]; [6]", "value": 47.3, "unit": "%"}, {"measurement": "Calc Percent Control of CLADSP", "setting": "[2]; 60 g ai/ha, MSO, 120 g ai/ha", "value": 61.8, "unit": "%"}, {"measurement": "Calc Percent Control of CLADSP", "setting": "[2]; [7]", "value": 68.2, "unit": "%"}, {"measurement": "Calc Percent Control of CLADSP", "setting": "[2]; 120 g ai/ha, MSO, 240 g ai/ha", "value": 97.0, "unit": "%"}, {"measurement": "Calc Percent Control of CLADSP", "setting": "[2]; [8]", "value": 69.7, "unit": "%"}, {"measurement": "Calc Percent Control of CLADSP", "setting": "[2]; 150 g ai/ha, MSO, 300 g ai/ha", "value": 55.1, "unit": "%"}, {"measurement": "Calc Percent Control of CLADSP", "setting": "[2]; [9]", "value": 90.9, "unit": "%"}, {"measurement": "Calc Percent Control of CLADSP", "setting": "[2]; 180 g ai/ha, MSO, 360 g ai/ha", "value": 39.5, "unit": "%"}]}]}
